{
  "source": "patent US20260273074A1",
  "about": "“FERRITIN-TARGETING PROTACS AND METHODS OF INDUCING PYROPTOSIS” (Wisconsin Alumni Research Foundation, priority 2023, published 2026)",
  "key": {"[1]": {"tested_on": "T1, ferritin (Mus musculus)", "T1 construct": "ferritin expression levels in B16F10 cells were evaluated; endogenous in cells; host or cells: B16F10 (murine melanoma)", "experiment": "Western blot of ferritin expression (ferritin degradation) in B16F10 cells", "assay_type": "cell-based, murine", "settings": "Epox 1 μM pretreatment 1 h; for effect on DeFer-2-mediated ferritin degradation: DeFer-2 0.5 μM 12 h, VHL ligand 50 μM in excess", "method": "Western blot analysis: After various treatments, ferritin expression levels in B16F10 cells were evaluated to investigate the DeFer-2-mediated ferritin degradation. Briefly, B16F10 cells were seeded in 6-well culture plates (5×10^4 cells per well) and cultured for 24 h. Then the medium in the corresponding wells except the negative control was replaced with 1 mL of medium containing ferritin degraders, albumin nanoparticles, the epimer formulations, the combination of VHL ligand and oleic acid, or the combination of the degrader and VHL ligand at the indicated concentrations. […] The lysates were centrifuged at 12,000 rpm for 10 min at 4° C., followed by quantification of the total proteins in the supernatant through the bicinchoninic acid assay (BCA) assay. Afterward, the proteins in the supernatant were mixed with the loading buffer and heated at 95° C. for 15 min. Equal amounts of proteins from different samples were loaded into 15% SDS-polyacrylamide gel (20 μg protein per lane) to separate target proteins. After separation, proteins were transferred to polyvinylidene fluoride (PVDF) membranes before the membranes were blocked with 5% nonfat milk in PBST. Then proteins were incubated with primary antibodies overnight at 4° C., followed by the incubation with the goat-anti-rabbit IgG H&L (HRP) secondary antibodies at room temperature for 2 h. Finally, the bands were detected with electrochemiluminescence (ECL) western blot substrate for imaging, and ImageJ software was used for quantification."}, "[2]": {"tested_on": "cleaved caspase 3", "experiment": "Western blot of cleaved caspase 3 in B16F10 cells", "assay_type": "cell-based, murine", "settings": "GSH pretreatment 4 h", "method": "(§1) As for the determination of cleaved-GSDME and cleaved-caspase-3, B16F10 cells were seeded in 6-well culture plates (2×10^5 cells per well) and cultured for 24 h. Then the medium in the corresponding wells except the negative control was replaced with 1 mL of medium containing ferritin degraders, albumin nanoparticles, or the degrader with inhibitors at the indicated concentrations. Incubation for another 6 or 8 h was used to test the cleaved-caspase-3, while treatment for another 16 or 20 h was used to test cleaved-GSDME. The following procedures were the same as mentioned above."}, "[3]": {"tested_on": "GSDME-N", "experiment": "Western blot of cleaved N-terminal GSDME (GSDME-N) in B16F10 cells", "assay_type": "cell-based, murine", "settings": "GSH pretreatment 4 h", "method": "as §1"}, "[4]": {"target": "T2, apoferritin from equine spleen (Equus caballus, UniProt P02791)", "T2 construct": "the apoferritin from equine spleen (A3660, Sigma-Aldrich) that is not combined with iron was used; purchased Sigma-Aldrich A3660; host or cells: equine spleen (tissue-derived)", "T2 sequence (P02791 2-175 limits assumed)": "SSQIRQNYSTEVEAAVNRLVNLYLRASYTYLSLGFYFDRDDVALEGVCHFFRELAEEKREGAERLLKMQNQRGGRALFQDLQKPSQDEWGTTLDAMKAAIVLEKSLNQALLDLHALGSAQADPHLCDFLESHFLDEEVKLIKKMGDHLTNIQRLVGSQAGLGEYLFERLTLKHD", "experiment": "Isothermal titration calorimetry (ITC) binding to ferritin", "method": "As for the ferritin proteins, the apoferritin from equine spleen (A3660, Sigma-Aldrich) that is not combined with iron was used. Before the ITC test, 1 mL of apoferritin in glycerol solution (50% glycerol and 0.075 M NaCl) was placed in a dialysis bag with a molecular weight cut-off of 3 kDa. The dialysis bags were then immersed in the prepared solution (20 mM Tris-HCl, pH 8.5, and 130 mM NaCl) and stirred at room temperature. The dialysis buffer was changed every 24 h for three times, and the last buffer was collected and 0.05% DMSO was added to serve as the ITC buffer. As for the oleic acid, 12 μM apoferritin in the ITC buffer was placed in the ITC cell, and the syringe was full of 250 μM oleic acid in the same ITC buffer. Besides the first injection with 5 μL of the oleic acid solution, 18 aliquots with 10 μL of the oleic acid solution were titrated into the apoferritin solution with a time interval of 300 s. […] Besides the first injection with 1 μL of the apoferritin solution, 25 aliquots were titrated with a time interval of 300 s. Raw data were corrected for control titrations (the solution in the syringe into the blank ITC buffer in the cell) and integrated using Origin 7.0 (MicroCal). Binding kinetics parameters, including N, Kd, ΔH, and ΔS, were calculated using a single-class binding site model."}, "[5]": {"tested_on": "B16F10 cells", "experiment": "Cell viability evaluation by CCK-8 assay", "settings": "B16F10 cells, DeFer-2 5 μM; DFOM 25 μM, Z-VAD 10 μM, NSCI 0.1 μM, VX-765 10 μM", "method": "Cell viability evaluation: The cell viability of B16F10 cells treated with ferritin degraders with or without various inhibitors was evaluated by CCK-8 assay. Briefly, 5×10^3 cells were seeded in 96-well plates and cultured for 24 h for attachment. Then the medium in the corresponding wells, except the control, was replaced with 100 μL of medium containing the indicated degrader formulations with concentrations of 0.008, 0.04, 0.2, 1, and 5 μM. After incubation for 24 or 48 h, CCK-8 reagent was added and interacted with cells at 37° C. for 1 h. The absorbance was measured by a microplate reader (Infinite M Plex) at the detection wavelength of 450 nm.\nFor blocking assays with Z-VAD, NSCI, and VX-765, 5×10^3 cells were seeded in 96-well plates and cultured 24 h for attachment. Then the medium in the corresponding wells, except the control, was replaced with 100 μL of medium containing Z-VAD (10 μM), NSCI (0.1 μM), or VX-765 (10 μM). […] Following another 24-h incubation, CCK-8 reagents were added and interacted with cells at 37° C. for 1 h. The absorbance was measured by a microplate reader (Infinite® M Plex) at the detection wavelength of 450 nm. For blocking assays with DFOM, 5×10^3 cells were seeded in 96-well plates and cultured 24 h for attachment. […] Following another 20-h incubation, CCK-8 reagents were added and interacted with cells at 37° C. for 1 h. The absorbance was measured by a microplate reader (Infinite® M Plex) at the detection wavelength of 450 nm."}, "[6]": {"tested_on": "B16F10 cells", "experiment": "LDH release assay", "assay_type": "cell-based, murine", "settings": "inhibitor pretreatment 4 h, DeFer-2 5 μM, NSCI 0.1 μM, VX-765 10 μM", "method": "After incubation for 24 h, the cell samples were used to measure LDH release according to the manufacturer's instructions of CytoScan™ LDH Cytotoxicity Assay kit from G-Biosciences (St. Louis, MO, USA).\nFollowing another 24-h incubation, the cell samples were used to measure LDH release according to the manufacturer's instructions of CytoScan™ LDH Cytotoxicity Assay kit from G-Biosciences (St. Louis, MO, USA)."}},
  "note": "Where a SMILES comes first, the peptide text is derived from it. The star is where a group is joined. Cbz = O=C(OCc1ccccc1)*; CH2F = FC*",
  "data": [
    {"molecule": "CC[C@H](C)[C@H](NC(=O)[C@H]([C@@H](C)CC)N(C)C(C)=O)C(=O)N[C@H](C(=O)N[C@@H](CC(C)C)C(=O)[C@@]1(C)CO1)[C@@H](C)O", "note": "[Epox, epoxomicin, reference compound]", "values": [
      {"measurement": "effect on aDeFer-2-mediated ferritin degradation", "setting": "[1]; B16F10 cells, 0.5 μM, 12 h", "result": "compromised the aDeFer-2-mediated ferritin degradation"},
      {"measurement": "effect on DeFer-2-mediated ferritin degradation", "setting": "[1]", "result": "inhibited"}
    ]},
    {"molecule": "N[C@@H](CCC(=O)N[C@@H](CS)C(=O)NCC(=O)O)C(=O)O", "note": "[GSH, glutathione, reference compound]", "values": [
      {"measurement": "effect of pretreatment on DeFer-2-caused caspase 3 activation", "setting": "[2]", "result": "substantially reduced activated caspase 3"},
      {"measurement": "effect of pretreatment on DeFer-2-caused GSDME-N generation", "setting": "[3]", "result": "compromised by GSH pretreatment"}
    ]},
    {"molecule": "CCCCCCCC/C=C\\CCCCCCCC(=O)O", "note": "[OA, oleic acid, reference compound]", "values": [
      {"measurement": "Kd", "setting": "[4]", "result": "12.8 ± 2.89", "unit": "µM"}
    ]},
    {"molecule": "Cc1ncsc1-c1ccc(CNC(=O)[C@@H]2C[C@@H](O)CN2C(=O)[C@@H](N)C(C)(C)C)cc1.Cl", "note": "[VHL ligand, (2S,4R)-1-((S)-2-amino-3,3-dimethylbutanoyl)-4-hydroxy-N-(4-(4-methylthiazol-5-yl)benzyl) pyrrolidine-2-carboxamide hydrochloride, reference compound]", "values": [
      {"measurement": "effect on DeFer-2-mediated ferritin degradation", "setting": "[1]", "result": "compromised"}
    ]},
    {"molecule": "CCO[C@@H]1OC(=O)C[C@@H]1NC(=O)[C@@H]1CCCN1C(=O)[C@@H](NC(=O)c1ccc(N)c(Cl)c1)C(C)(C)C", "note": "[VX-765, reference compound]", "values": [
      {"measurement": "effect on DeFer-2-induced cytotoxicity / cell death", "setting": "[5]", "result": "remained unchanged"},
      {"measurement": "effect on LDH release caused by DeFer-2", "setting": "[6]", "result": "barely affected"}
    ]},
    {"molecule": "COC(=O)C[C@H](NC(=O)[C@H](C)NC(=O)[C@@H](NC(=O)OCc1ccccc1)C(C)C)C(=O)CF", "note": "[Z-VAD, Z-VAD(OMe)-FMK, reference compound] (Cbz-Val-Ala-Asp(OMe)-CH2F)", "values": [
      {"measurement": "effect on DeFer-2-induced cytotoxicity / cell death", "setting": "[5]", "result": "compromised"}
    ]}
  ]
}
